Consider one compound from patent EP4759807A1, “PROTEOLYSIS TARGETING CHIMERA COMPOUND FOR DEGRADING IRAK4 AND USE THEREOF” (Shenzhen Zhongge Biological Technology Co., Ltd., priority 2023, dated 2025).

In one series the target is T1, CYP2C19 (Homo sapiens, UniProt P33261).
T1 construct: (using 0.2 mg/mL liver microsomes for CYP2C19); tissue BioIVT IHG; host or cells: human liver microsomes
The series can be described thus: Inhibitory effect on human liver microsome CYP450 enzyme. The series is classed as in vitro ADME. As to conditions: human liver microsomes, substrate Mephenytoin. On the procedure: (§1) In this experiment, the compound, liver microsomes and different CYP isoform enzyme substrates were incubated in a 37°C water bath, the amount of substrate metabolites generated was measured, and the inhibitory effect of the compound of the present disclosure on CYP enzyme was evaluated based on the IC50 value.
(§2) i. The compound was diluted with DMSO (Aladdin, catalog number: D103273-500ml) to concentrations of 0, 0.02, 0.06, 0.2, 0.6, 2 and 6 mM. The positive reference inhibitors for each CYP isoform and their concentrations are shown in Table 4 Table 4 Positive reference inhibitors for CYP isoform enzymes and their concentrations
(§3) ii. Phosphate buffer (sigma: V900050-500G) was used to formulate the substrate solution for each CYP isoform enzyme. Table 5 The substrate and the concentration thereof for CYP isoform enzyme
(§4) iii. Sample incubation. 1 µL of each concentration of the compound and positive reference inhibitor for CYP isoform enzyme were taken and placed into a 96-deep well plate (A-gen: P-1.0-RD-96-S), and 169 µL of 0.05 mg/mL liver microsomes (BioIVT, IHG) phosphate buffer solution (using 0.2 mg/mL liver microsomes for CYP2C19) was added. After uniform mixing, the plate was placed in a 37°C water bath (Shanghai Jinghong Experimental Equipment Co., Ltd., DK-500) with shaking for pre-incubation for 15 min. 10 µL of substrate (adding 1 µL of substrate for CYP3A4-Testosterone) and 20 µL of 10 mM NADPH phosphate buffer solution (MCE, HYF003/CS-4998) were added. After uniform mixing, the plate was incubated in a water bath with shaking for the following time: CYP1A2: 20 min, CYP2C9: 10 min, CYP2C19: 10 min, CYP2D6: 10 min, CYP3A4-Testosterone: 10 min, CYP3A4-Midazolam: 5 min. 400 µL of glacial acetonitrile/methanol (v/v, 1:1) containing an internal standard (500 nM tolbutamide, 5 nM terfenadine) was added to terminate the reaction. After centrifugation at 4000 rpm at 4°C for 40 min, the supernatant was taken and diluted with pure water according to the response of the metabolite of the substrate, and then UPLC-MS/MS (Sciex, Q-Trap 4500) was used for detection to obtain the peak area. The C18 chromatographic column was Kinetex 2.6u C18 100A (50 mm*3 mm).
(§5) The inhibitory effect of the compound on each P450 enzyme in human liver microsomes was calculated as the percentage of reduced metabolite formation compared with the non-inhibitory control (i.e. blank DMSO). The IC50 value of the compound for each P450 enzyme in human liver microsomes was calculated with the logarithm of the remaining activity and the inhibitor concentration using Graphpad Prism software. The calculation equation was as follows: Peak area ratio = compound peak area / internal standard peak area [formula] [formula]
(§6) In Graphpad Prism software, the IC50 value was calculated using the standard four-parameter curve fitting algorithm.
(Microsomes from liver hold many membrane-bound enzymes, among them those of drug oxidation.)

Another series concerns the target T2, CYP3A4 (Homo sapiens, UniProt P08684).
T2 construct: 0.05 mg/mL liver microsomes (BioIVT, IHG) phosphate buffer solution; tissue BioIVT IHG; host or cells: human liver microsomes
The series is described as above. In kind it is in vitro ADME. As to conditions: liver microsomes. On the procedure:
as §1, §2, §3, §4, §5, §6

Series [1] concerns IFN-γ, IL-1β, IL-6, IL-10, IL-12p70, TNF-α and IL-23 secretion by hPBMC. Description: Inhibition of LPS-induced secretion of multiple cytokines by human-derived PBMC (MSD detection). In kind it is cell-based. As to conditions: 8 h compound, then LPS 2 ng/mL 16 h; compared with KT474. On the procedure:
Experiment materials: Human-derived peripheral blood mononuclear cells (hPBMC) were provided by Hemacare Donor Center.
Thawing and plating PBMCs: The frozen PBMC was removed from liquid nitrogen, thawed in a 37°C water bath kettle, then resuspended with 10 mL of complete medium, and centrifuged at 350 g at room temperature for 5 min, and the supernatant was discarded. The cells were resuspended with 5 mL of complete medium, and the cells were counted. The cells were diluted to 2 × 10^6/mL based on the counting results, and 0.1 mL (2 × 10^5 cells) was added to each well of the 96-well plate.
After uniform mixing, incubation was performed in an incubator at 37°C and 5% CO2 for 8 h.
LPS induction: After 8 h, 50 µL of LPS was added to all wells to a final concentration of 2 ng/mL. After uniform mixing, incubation was further performed in an incubator at 37°C and 5% CO2 for 16 h. […]
MSD detection: The buffer was added to the freeze-dried human inflammatory factor standard mixture to prepare a highest concentration standard (standard 1), and then serial 4-fold dilutions were performed and a standard with a concentration of 0 was prepared (a total of 10 concentrations). […] The plate was washed 3 times, and then 150 µL of 2× reading buffer was added and the plate was read using an MSD instrument.

For another series, the target named is T3, IRAK4 (Mus musculus, UniProt Q8R4K2).
T3 sequence (Q8R4K2 1-459): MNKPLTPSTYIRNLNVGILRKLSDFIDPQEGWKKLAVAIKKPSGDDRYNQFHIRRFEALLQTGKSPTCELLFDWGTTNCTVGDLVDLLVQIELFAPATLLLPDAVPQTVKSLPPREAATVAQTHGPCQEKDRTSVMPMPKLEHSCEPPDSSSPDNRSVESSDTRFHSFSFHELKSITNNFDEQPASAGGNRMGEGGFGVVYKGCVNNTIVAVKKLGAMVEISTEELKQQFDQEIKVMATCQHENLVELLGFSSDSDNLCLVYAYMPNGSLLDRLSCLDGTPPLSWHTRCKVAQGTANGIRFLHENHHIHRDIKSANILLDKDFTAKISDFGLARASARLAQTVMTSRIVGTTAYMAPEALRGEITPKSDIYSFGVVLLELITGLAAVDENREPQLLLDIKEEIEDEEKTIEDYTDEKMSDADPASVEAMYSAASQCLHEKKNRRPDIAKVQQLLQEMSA
The note with it: Balb/c mice, 24 h.

Molecules are shown by their SMILES. Read-outs that look alike come from different tables or passages of the source. Some results are limits rather than exact numbers.

T2 sequence (P08684 whole entry): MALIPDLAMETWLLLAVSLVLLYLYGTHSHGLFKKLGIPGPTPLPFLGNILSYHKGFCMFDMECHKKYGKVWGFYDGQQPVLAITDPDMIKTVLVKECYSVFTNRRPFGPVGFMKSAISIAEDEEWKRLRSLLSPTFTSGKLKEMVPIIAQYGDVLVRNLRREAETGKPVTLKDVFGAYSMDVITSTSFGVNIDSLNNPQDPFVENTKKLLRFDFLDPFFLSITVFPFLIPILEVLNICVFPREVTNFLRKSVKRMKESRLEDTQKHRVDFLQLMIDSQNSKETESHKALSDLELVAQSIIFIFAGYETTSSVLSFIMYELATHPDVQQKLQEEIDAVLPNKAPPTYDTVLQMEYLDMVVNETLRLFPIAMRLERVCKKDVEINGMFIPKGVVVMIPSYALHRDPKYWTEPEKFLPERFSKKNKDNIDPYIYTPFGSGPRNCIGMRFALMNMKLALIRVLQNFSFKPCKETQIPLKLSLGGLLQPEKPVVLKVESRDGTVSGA
T1 sequence (P33261 whole entry): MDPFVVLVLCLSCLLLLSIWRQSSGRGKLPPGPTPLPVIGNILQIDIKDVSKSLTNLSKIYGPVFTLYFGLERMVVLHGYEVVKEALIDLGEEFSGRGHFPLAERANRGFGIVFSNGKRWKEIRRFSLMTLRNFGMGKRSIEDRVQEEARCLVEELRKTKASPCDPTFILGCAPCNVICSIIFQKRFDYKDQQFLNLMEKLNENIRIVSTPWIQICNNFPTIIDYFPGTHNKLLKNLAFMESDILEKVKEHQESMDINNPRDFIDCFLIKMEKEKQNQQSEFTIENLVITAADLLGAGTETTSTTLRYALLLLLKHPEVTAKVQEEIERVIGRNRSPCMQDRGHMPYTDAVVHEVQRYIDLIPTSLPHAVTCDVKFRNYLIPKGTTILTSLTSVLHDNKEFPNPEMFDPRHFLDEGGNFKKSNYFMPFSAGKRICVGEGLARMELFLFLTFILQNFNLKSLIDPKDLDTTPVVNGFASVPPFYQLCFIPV
Experimental for IRAK4: Experiment materials: Female Balb/c mice, 6-8 weeks old, 18-20 grams were used in the experiment and were provided by Vital River Laboratory Animal Technology Co., Ltd.
Experimental method: The experiment started after the experimental animals were acclimated to the animal facility environment for 3 days. […] After 24 h, the animals were euthanized, and whole blood and spleen tissue were collected. The whole blood was temporarily placed on wet ice for subsequent PBMC extraction, and the spleen tissue was quickly placed in dry ice. PBMC extraction: 1.5 ml of red blood cell lysis buffer was added to the whole blood, and the obtained mixture was tapped with fingers for mixing, placed at room temperature in the dark for 5 min, and centrifuged at 400 g for 5 min, and the supernatant was discarded. The above steps were repeated twice. Then, 1.5 ml of DPBS was added and mixed uniformly. The mixture was centrifuged at 400 g for 5 min, and the obtained precipitate was PBMC. The PBMC was stored in a -80°C refrigerator for subsequent Western blot analysis. PBMC sample processing: The PBMC samples were placed on wet ice. 50 µL of lysis buffer was separately added to lyse the samples for 30 min, and the mixture was centrifuged at 12500 rpm for 15 min. The protein was quantified by the BCA method. […] The protein was quantified by BCA method. […]

For the compound `Cn1c(=O)n(C2CCC(=O)NC2=O)c2cccc(N3CCC(N4CCN(C[C@H]5CC[C@H](n6cc(-n7cc(-c8cnn9ccc(N%10CCC[C@H](O)C%10)nc89)nn7)c(C(F)F)n6)CC5)CC4)CC3)c21` (stereo partly drawn) [Example 146], the half-inhibitory concentration (IC50) (in general, the concentration at which inhibition is half-maximal) against CYP2C19 was 18.4 µM; at CYP3A4 (substrate Midazolam, read-out: IC50 (µM) CYP3A4-M), greater than 30 µM; at CYP3A4 (substrate Testosterone, read-out: IC50 (µM) CYP3A4-T) it was greater than 30 µM. Moreover, in series [1], the “ability to inhibit the secretion of multiple cytokines by human-derived PBMC” value was “significantly better than that of positive reference KT474”. Moreover, at IRAK4 (single oral dose 10, 30, 100 mg/kg, compared with the blank control group), the “expression level of IRAK4 protein in the spleen and PBMC” value is given as “significantly inhibit”. The “proteolysis ability for spleen IRAK4” value at IRAK4 (single oral dose, three doses of 10, 30, and 100 mpk, compared with KT474) is recorded as “significantly superior to KT474”.
